From patent US20240246905A1 (University of Leicester, priority 2021, published 2024) come the findings set out here.

This assay concerns S. aureus AS 68 biofilm. The assay can be described thus: Biofilm eradication, 24 hour old biofilms, crystal violet. Format: cell-based. Here is the method:
The attenuation of biomass by the lead compounds in the 24 hour old biofilms was measured by crystal violet stain assay. […] Further assays were performed to study the biofilm attenuation properties of compound 41. At concentrations, as low as 2 μg/ml (the lowest concentration tested), there was still an 86% reduction of the biofilm depth (FIG. 4).
Eradication: To develop biofilms, 2.5 μL of an overnight culture of bacteria was added to individual wells in a 96-well plate each containing 100 μL TSB supplemented with 0.5% glucose and incubated at 37° C. for 24 hours. Following this, the medium in each well was first discarded and washed once with PBS before set concentrations of antibiotic was added and incubated at 37° C. for a further 18 hours. The medium in each well was then discarded, washed 4× with PBS before 150 μL 1% crystal violet was added and the plate was left to incubate at room temperature for a further 30 minutes. Following incubation, the medium in each well was first discarded before being washed 4× with PBS. 200 μL 7% acetic acid was then added and the wells were measured at OD595.

`[C-]#[N+]/C=C/c1ccc(NC(C)=O)cc1/C=C/c1ccccc1` [Compound 41, N-(4-((E)-2-Isocyanovinyl)-3-((E)-styryl)phenyl)acetamide]: where the note is “S. aureus AS 68, 2 μg/ml (the lowest concentration tested)”, the “reduction of the biofilm depth” value was 86%. The “attenuation of biomass in 24 hour old biofilms” value (S. aureus AS 68, 50 μg/mL, crystal violet) was “significant attenuation in biomass”.
